The values that follow come from patent US11473089B2, “Aptamer for ADAMTS5 and use for aptamer for ADAMTS5” (RIBOMIC INC., priority 2017, dated 2022).

The test system of data set [1] is HFLS-OA cells. Kind of data set: aggrecan cleavage inhibitory activity in synovial cells. It counts as cell-based, human. The following applies: Table 11, culture supernatant after 3 days. As to the method: The aggrecan cleavage inhibitory activity of the aptamers shown in SEQ ID NOs: 11(34), 28(13), 28(15), 28(18) in synovial cells was measured. The measurement was performed by the following method. Synovial cells (HFLS-OA cells) (manufactured by Cell Applications) derived from human knee osteoarthritis patients were seeded at 2×10^4 cells per well, and cultured for 16-24 hr. The culture method followed the manual of Cell Applications. After culturing, the medium was removed, the cells were washed with Basal Medium (manufactured by Cell Applications), and 500 ng of aggrecan G1-IGD-G2 (manufactured by R&D systems) diluted with Basal Medium as a substrate was added. The aptamer was added simultaneously with the substrate to the samples to be evaluated for inhibition by the aptamer. The cells were kept cultured and the culture supernatant was collected after 3 days. The added substrate is cleaved during culture by substrate-cleaving enzymes such as ADAMTS5 secreted from the HFLS-OA cells. The amount of the cleaved substrate fragment contained in the culture supernatant was quantified by the ELISA method described in Example 5. The substrate cleavage efficiency in this evaluation system was 1-8%. The nucleic acid shown in SEQ ID NO: 15 was used as a negative control.

Data set [2] addresses T1, ADAMTS5 (Homo sapiens, UniProt Q9UNA0).
T1 construct: purchased R&D systems
T1 sequence (Q9UNA0 262-930): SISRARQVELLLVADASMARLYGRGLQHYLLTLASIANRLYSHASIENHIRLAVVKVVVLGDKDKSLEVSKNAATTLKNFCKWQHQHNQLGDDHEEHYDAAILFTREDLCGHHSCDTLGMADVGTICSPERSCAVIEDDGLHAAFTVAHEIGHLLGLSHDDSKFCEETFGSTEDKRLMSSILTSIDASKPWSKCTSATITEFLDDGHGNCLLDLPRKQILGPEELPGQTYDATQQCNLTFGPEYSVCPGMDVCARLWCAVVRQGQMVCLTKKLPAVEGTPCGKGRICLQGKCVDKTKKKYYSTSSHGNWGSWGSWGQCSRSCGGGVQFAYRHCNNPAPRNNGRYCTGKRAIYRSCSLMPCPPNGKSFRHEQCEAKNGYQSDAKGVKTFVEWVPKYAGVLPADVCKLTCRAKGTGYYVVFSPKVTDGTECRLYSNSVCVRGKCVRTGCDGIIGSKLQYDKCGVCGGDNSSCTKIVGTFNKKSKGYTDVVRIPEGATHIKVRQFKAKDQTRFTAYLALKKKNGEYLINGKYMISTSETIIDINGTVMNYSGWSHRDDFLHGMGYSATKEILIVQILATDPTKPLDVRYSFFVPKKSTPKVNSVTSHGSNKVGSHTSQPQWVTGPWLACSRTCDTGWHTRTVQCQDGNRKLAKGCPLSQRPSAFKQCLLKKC
Kind of data set: ADAMTS5 enzyme inhibition, aggrecan G1-IGD-G2 cleavage, sandwich ELISA detection (evaluation method 2). It counts as biochemical. The following applies: Table 6; 2 nM aptamer; 0.2 nM ADAMTS5, 400 nM substrate, 30 min. As to the method:
On the other hand, the aptamers having the sequences shown by the sequences of SEQ ID NOs: 11(34)-11(35) and SEQ ID NO: 15 were evaluated by the following method (evaluation method 2). The cleavage reaction of the substrate (aggrecan G1-IGD-G2) by ADAMTS5 was performed in the same manner as in Example 1 except the following points. The differences are that the final concentrations of ADAMTS5 and the substrate were respectively 0.2 nM and 400 nM (48 μg/mL), and that the enzyme reaction time was 30 min. After the reaction, the reaction was stopped by adding an excess amount of an ADAMTS5 small molecule inhibitor. The cleaved substrate was quantified by a sandwich ELISA method using two kinds of anti-aggrecan antibodies. […] Using this, the amount of cleaved substrate can be quantified. […] The inhibition rate of the test substance was calculated using the following equation. inhibition rate (%)=(PE−Papt)/(PE−P0)×100 wherein PE is the amount of a cleaved substrate with the addition of ADAMTS5, Papt is the amount of a cleaved substrate with the addition of a test substance, and P0 is the residual amount of a cleaved substrate without the addition of ADAMTS5.
The measurement results of the inhibitory activity of the aptamers having the sequences shown in SEQ ID NOs: 11(34)-11(35) and SEQ ID NO: 15 are shown in Table 6, evaluation method 2. […] “n.d.” means not determined. […]

Turning to “15 (AUUGGCACGGAGACAGCGCUCGCUUCUCGAUCACCAAU; listed as RNA, chemistry not given here) [compound 15]”, the “inhibition rate (%) 3 nM” value in data set [1] (3 nM aptamer) is 10%. The “inhibition rate (%) 30 nM” value in data set [1] (30 nM aptamer) stood at 8%. For the same substance, in data set [1] (300 nM aptamer), the “inhibition rate (%) 300 nM” value was determined as 37%. The “inhibitory activity (%) evaluation method 2” value in data set [2] stood at 16.5%.
